# Source: ChEMBL document CHEMBL1136486, “Novel 3,4-dihydroquinolin-2(1H)-one inhibitors of human glycogen phosphorylase a” (Bioorg Med Chem Lett, 2003)
# Legend:
# [1] = target: T1, Glycogen phosphorylase, muscle form (Homo sapiens, UniProt P11217); experiment: Inhibitory concentration against recombinant human muscle glycogen phosphorylase a (HMGPa); type: single protein
# T1 sequence (P11217 whole entry): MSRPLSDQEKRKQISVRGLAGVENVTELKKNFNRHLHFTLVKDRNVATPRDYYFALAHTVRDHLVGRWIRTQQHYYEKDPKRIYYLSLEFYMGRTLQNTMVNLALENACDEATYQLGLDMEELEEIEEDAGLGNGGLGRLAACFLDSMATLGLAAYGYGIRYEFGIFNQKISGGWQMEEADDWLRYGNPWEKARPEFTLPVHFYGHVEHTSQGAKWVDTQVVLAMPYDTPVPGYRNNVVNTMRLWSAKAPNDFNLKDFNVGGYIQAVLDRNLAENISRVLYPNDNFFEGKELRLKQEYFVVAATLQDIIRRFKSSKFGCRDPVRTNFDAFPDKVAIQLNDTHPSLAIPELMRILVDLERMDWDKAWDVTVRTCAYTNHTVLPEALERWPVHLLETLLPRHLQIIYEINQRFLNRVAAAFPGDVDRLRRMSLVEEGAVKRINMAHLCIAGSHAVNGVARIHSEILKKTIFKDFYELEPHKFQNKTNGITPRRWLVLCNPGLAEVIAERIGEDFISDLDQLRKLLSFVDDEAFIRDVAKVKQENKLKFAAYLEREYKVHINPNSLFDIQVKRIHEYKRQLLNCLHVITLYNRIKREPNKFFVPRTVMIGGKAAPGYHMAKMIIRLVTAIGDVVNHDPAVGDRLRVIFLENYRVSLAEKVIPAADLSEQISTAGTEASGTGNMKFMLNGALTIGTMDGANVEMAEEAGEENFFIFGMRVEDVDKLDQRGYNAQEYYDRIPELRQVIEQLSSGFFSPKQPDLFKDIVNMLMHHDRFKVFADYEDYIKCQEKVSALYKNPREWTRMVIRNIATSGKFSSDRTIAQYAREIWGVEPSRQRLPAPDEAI
# [2] = target: T2, Glycogen phosphorylase, liver form (Homo sapiens, UniProt P06737); experiment: Inhibitory concentration against recombinant human liver glycogen phosphorylase a (HLGPa)
# T2 sequence (P06737 whole entry): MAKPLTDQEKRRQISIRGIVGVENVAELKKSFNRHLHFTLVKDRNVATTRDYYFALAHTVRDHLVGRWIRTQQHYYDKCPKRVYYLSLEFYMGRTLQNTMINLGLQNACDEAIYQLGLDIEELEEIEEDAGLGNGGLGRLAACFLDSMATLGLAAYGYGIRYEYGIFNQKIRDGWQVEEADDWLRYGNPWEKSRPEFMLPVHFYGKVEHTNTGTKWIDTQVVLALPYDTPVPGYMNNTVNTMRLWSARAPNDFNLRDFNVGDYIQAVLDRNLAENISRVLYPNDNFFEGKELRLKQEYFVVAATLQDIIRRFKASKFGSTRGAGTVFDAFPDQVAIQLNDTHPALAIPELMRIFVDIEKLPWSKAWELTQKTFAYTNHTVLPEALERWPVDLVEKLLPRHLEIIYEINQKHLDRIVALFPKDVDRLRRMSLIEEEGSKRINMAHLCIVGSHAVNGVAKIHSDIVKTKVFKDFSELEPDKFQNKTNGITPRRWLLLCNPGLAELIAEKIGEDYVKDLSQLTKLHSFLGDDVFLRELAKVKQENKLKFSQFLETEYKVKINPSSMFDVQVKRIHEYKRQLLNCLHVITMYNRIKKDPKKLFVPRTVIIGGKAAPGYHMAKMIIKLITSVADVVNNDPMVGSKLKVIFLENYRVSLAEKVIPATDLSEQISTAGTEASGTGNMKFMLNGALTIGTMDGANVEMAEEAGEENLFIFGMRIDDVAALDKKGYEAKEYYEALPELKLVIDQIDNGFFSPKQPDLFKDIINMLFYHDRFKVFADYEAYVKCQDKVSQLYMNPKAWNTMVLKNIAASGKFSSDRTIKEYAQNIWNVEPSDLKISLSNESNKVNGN
# Rattus norvegicus = species on record: Rattus norvegicus; experiment: Inhibition of glucose production in glucagon-stimulated glycogenolysis in primary rat hepatocytes; type: functional; conditions: Hepatocyte
Compound,IC50 [1],IC50 [2],EC50 (Rattus norvegicus)
CN1C(=O)C(NC(=O)c2cc3cc(C(F)(F)F)ccc3[nH]2)Cc2ccccc21 (configuration not stated),550 nM,1500 nM,–
CN1C(=O)C(NC(=O)c2cc3cc(Br)ccc3[nH]2)Cc2ccccc21 (configuration not stated),73 nM,30 nM,–
COc1ccc2[nH]c(C(=O)NC3Cc4ccccc4N(C)C3=O)cc2c1 (configuration not stated),1700 nM,1700 nM,–
O=C(NC1CCc2ccccc2NC1=O)c1ccc(Cl)c(Cl)c1 (racemic),21700 nM,6400 nM,–
CN1C(=O)C(NC(=O)c2cc3cc(-c4ccccc4)ccc3[nH]2)Cc2ccccc21 (configuration not stated),> 20000 nM,> 20000 nM,–
CCc1ccc2[nH]c(C(=O)NC3Cc4ccccc4N(C)C3=O)cc2c1 (configuration not stated),850 nM,2500 nM,–
CN1C(=O)C(NC(=O)c2cc3ccc(Cl)cc3[nH]2)Cc2ccccc21 (configuration not stated),69 nM,99 nM,–
CN1C(=O)C(NC(=O)c2cc3ccccc3[nH]2)Cc2ccccc21 (configuration not stated),56 nM,160 nM,–
O=C(NC1Cc2ccccc2NC1=O)c1cc2cc(Cl)ccc2[nH]1 (racemic),38 nM,44 nM,–
O=C(NC1Cc2ccccc2N(Cc2cccnc2)C1=O)c1cc2cc(Cl)ccc2[nH]1 (racemic),–,130 nM,16.6 µM
CN1C(=O)C(NC(=O)c2cc3cccc([N+](=O)[O-])c3[nH]2)Cc2ccccc21 (configuration not stated),120 nM,300 nM,–
O=C(N[C@H]1Cc2ccccc2NC1=O)c1cc2cc(Cl)ccc2[nH]1,39 nM,47 nM,7.8 µM
CN1C(=O)C(NC(=O)c2cc3cc(Cl)ccc3[nH]2)CCc2ccccc21 (configuration not stated),105 nM,305 nM,–
CN1C(=O)C(NC(=O)c2cc3cc(Cl)cc(F)c3[nH]2)Cc2ccccc21 (configuration not stated),55 nM,83 nM,–
O=C(N[C@@H]1Cc2ccccc2NC1=O)c1cc2cc(Cl)ccc2[nH]1,14 nM,25 nM,1.8 µM

# Continued, in another order:
IC50 [1],IC50 [2],Compound,EC50 (Rattus norvegicus)
2440 nM,1060 nM,O=C(NC1CCc2ccccc2NC1=O)c1cc2ccccc2[nH]1 (configuration not stated),–
> 20000 nM,> 20000 nM,COC(=O)c1cc2[nH]c(C(=O)NC3Cc4ccccc4N(C)C3=O)cc2cc1Cl (configuration not stated),–
2100 nM,1600 nM,CN1C(=O)C(NC(=O)c2cc3c(Cl)cccc3[nH]2)Cc2ccccc21 (configuration not stated),–
–,110 nM,O=C(NC1Cc2ccccc2N(Cc2ccccn2)C1=O)c1cc2cc(Cl)ccc2[nH]1 (racemic),20.7 µM
–,140 nM,Cc1n[nH]c(CN2C(=O)C(NC(=O)c3cc4cc(Cl)ccc4[nH]3)Cc3ccccc32)n1 (racemic),1.2 µM
–,140 nM,O=C(N[C@H]1Cc2ccccc2N(Cc2ccccn2)C1=O)c1cc2cc(Cl)ccc2[nH]1,11.6 µM
6800 nM,1200 nM,CN1C(=O)C(NC(=O)c2cc3cccc(N)c3[nH]2)Cc2ccccc21 (configuration not stated),–
2310 nM,1370 nM,O=C(NC1Cc2ccccc2NC1=O)c1ccc(Cl)c(Cl)c1 (configuration not stated),–
> 20000 nM,> 20000 nM,CN1C(=O)C(NC(=O)c2cc3ccc(-c4ccccc4)cc3[nH]2)Cc2ccccc21 (configuration not stated),–
32 nM,25 nM,CN1C(=O)C(NC(=O)c2cc3cc(Cl)ccc3[nH]2)Cc2ccccc21 (racemic),–
98 nM,120 nM,Cc1ccc2[nH]c(C(=O)NC3Cc4ccccc4N(C)C3=O)cc2c1 (configuration not stated),–
2700 nM,5300 nM,COC(=O)c1ccc2[nH]c(C(=O)NC3Cc4ccccc4N(C)C3=O)cc2c1 (configuration not stated),–
–,160 nM,O=C(NC1Cc2ccccc2N(Cc2nnc(-c3ncc[nH]3)[nH]2)C1=O)c1cc2cc(Cl)ccc2[nH]1 (racemic),3.7 µM
110 nM,180 nM,CN1C(=O)C(NC(=O)c2cc3cc(C#N)ccc3[nH]2)Cc2ccccc21 (configuration not stated),–
–,120 nM,O=C(N[C@@H]1Cc2ccccc2N(Cc2ccccn2)C1=O)c1cc2cc(Cl)ccc2[nH]1,14.5 µM
89 nM,120 nM,CN1C(=O)C(NC(=O)c2cc3cc(F)ccc3[nH]2)Cc2ccccc21 (configuration not stated),–
> 20000 nM,> 20000 nM,COC(=O)c1c(Cl)ccc2[nH]c(C(=O)NC3Cc4ccccc4N(C)C3=O)cc12 (configuration not stated),–
57 nM,57 nM,CN1C(=O)[C@@H](NC(=O)c2cc3cc(Cl)ccc3[nH]2)Cc2ccccc21,8.4 µM
58 nM,61 nM,CN1C(=O)[C@H](NC(=O)c2cc3cc(Cl)ccc3[nH]2)Cc2ccccc21,13.2 µM
